Measured values from article PMC10761119, “Phosphorylation-state dependent intraneuronal sorting of Aβ differentially impairs autophagy and the endo-lysosomal system” (Autophagy, 2023).

Experiments:
primary cortical neurons [1] = assay: Immunocytochemistry colocalization of internalized Aβ with vesicular markers (Mander's overlap coefficient); format: cell-based, mouse; settings: Aβ 500 nM, 4 h, mean ± S.D., n = 6, N = 3; for Mander's overlap coefficient, R, with EEA1-positive vesicles: Aβ stained with 82E1
primary cortical neurons [2] = assay: Lysosome enrichment, immunoisolation of LAMP2- or LC3-positive vesicles and Aβ immunoprecipitation with western immunoblotting; format: cell-based, mouse; settings: Aβ 500 nM, 4 h; for Intraneuronal accumulation of Aβ peptides by immunoprecipitation of total Aβ (rank order): IP from PNS with 4G8; for Aβ levels in the lysosomal/late endosomal enriched fraction (16,000 g pellet): immunoblot, two independent experiments; for Aβ in LAMP2-immunoisolated lysosomes: compared to p-Ser8Aβ
Protocol: Cells after respective washing steps were collected by scraping and homogenized in isotonic buffer (10 mM Tris-HCl, pH 7.4, 1 mM MgCl2, 0.1 mM EGTA, 0.25 M sucrose) containing protease and phosphatase inhibitors, by repeated suspension through a 23 G × 1” needle. Cell homogenate was centrifuged at 2,000 g for 5 min. Pellet (nuclear material) was discarded. The post-nuclear supernatant was centrifuged at 16,100 g for 15 min. Pellet comprised of lysosome enriched material and the supernatant was used as the crude lysosome depleted material. Pellet was resuspended in STEN-lysis buffer and the lysosome enriched fraction was the supernatant collected after centrifugation at 16,100 g for 15 min. Supernatant was further centrifuged at 16,100 g for 60 min. The resultant pellet contained lysosome depleted material and supernatant was crude cytosolic material. The pellet was re-homogenized in STEN-lysis buffer and the supernatant was the lysosome depleted fraction collected post-centrifugation at 16,100 g for 15 min.
Cells after respective washing steps were collected by scraping and homogenized in either isotonic buffer or hypotonic D buffer containing protease and phosphatase inhibitors by repeated suspension through a 23 G × 1” needle. Cell homogenate was centrifuged at 2,000 g for 5 min and the nuclear material (pellet) was discarded. The post-nuclear supernatant was then used for IP experiments. Sepharose G beads (ThermoFisher Scientific, 101242) were incubated with PNS material at RT for 1 h, beads were further pelleted down and boiled in 1% SDS in 50 mM Tris-HCl, pH 7.6 along with sample buffer, used as bead control. Supernatant exposed to beads only were devoid of nonspecific binding substrates and was used further as loading control. New set of beads were precoated with respective primary antibodies for 1 h and then incubated with the PNS solutions overnight at 4°C. Beads were pelleted down and boiled with 1% SDS in 50 mM Tris-HCl along with sample buffer as the IP eluate.
For different cellular fractions prepared as described earlier, the protein content was estimated using the standard Pierce™ BCA protein assay kit (ThermoFisher Scientific, 23225). For direct comparison between the samples, equal amount of protein was loaded. Samples were dissolved in Laemmli buffer and were boiled at 95°C for 5 min. They were loaded on a precast 4–12% NuPage® Bis-Tris gels (Life technologies, NP033–5/6, WG140–2/3). Gels and prestained protein molecular weight markers were purchased from Life technologies. The separated proteins were electro-transferred onto a 0.2-μm nitrocellulose (NT) membrane (Amersham, 1060001) for 1 h 45 min. After blotting, the NT membranes were boiled in PBS for 10 min. Ponceau staining was done to monitor protein loading of samples. The blots were then incubated in 5% skim milk in TBS-T (TBS [50 mM Tris-HCl, pH 7.5, 150 mM NaCl] containing 0.1% Tween 20 [Sigma Aldrich, P1379]) for 1 h at RT. Blots were incubated overnight at 4°C in the primary antibody solution (respective dilutions in TBS-T, Table 1). Blots were washed and incubated with appropriate secondary antibodies conjugated either with HRP or fluorescent dyes for 1 h. Blots were developed either by enhanced chemiluminescence (ECL) or fluorescence imaging. For ECL imaging, blots were incubated with equivalent mixtures of ECL solution A (0.1 M Tris, 0.4 mM coumaric acid, 2.5 mM luminol, pH 8.5) and B (0.1 M Tris, 0.018% H2O2) mixed prior to application on blots. Signals were detected with an ECL imager (Bio-Rad, Germany). For fluorescence detection, blots were imaged on a Li-COR imaging station (Li-COR Biosciences, Germany). Blots were presented as is or with minimal linear contrast enhancement (Figure 5B–D; S1; S3E; S5E, S8E). Quantification of band signals was done using ImageJ – Gel processing module or Image Studio processing software (LiCOR Biosciences, Germany). […]

SH-SY5Y cells = assay: Number and perinuclear/peripheral positioning of LAMP2-positive compartments; format: cell-based, human; settings: Aβ 1 µM, 24 h
Protocol: Cells were cultured on glass coverslips and treated similarly as mentioned above. After treatment, cells were subsequently washed and fixed with 4% paraformaldehyde in PBS for 15 min. Cells were then permeabilized with 0.25% Triton X-100 in PBS for 1 min, followed by blocking with 2.5% BSA, 0.125% Triton X-100 in PBS. Incubation with primary antibodies (respective dilutions in blocking buffer) was performed overnight at 4°C. Next day, coverslips were washed and incubated with respective secondary antibodies (respective dilutions in blocking buffer) for 1 h at RT. Removal of the secondary antibody solution was followed by washes with PBS (thrice) and distilled water (once) and coverslips were mounted on the slides using ImmuMount (ThermoFisher Scientific – Shandon Epredia™, 9990412). For surface staining without permeabilization, Triton X-100 was not used in any solution during the staining procedure.
All images were processed and analyzed using Fiji ImageJ software. Mander’s overlap coefficient (Figure 1B–D; Figure 2B–F; Figure 4B–F; Figure 6E; S2B, D; S4B, D; S6D, F) analysis was done using the colocalization processing module of the Fiji ImageJ plugin. Distance from the plaque core (Figure 1B) was measured using the concentric circles plugin module. Fluorescence intensity of the green channel (Figure S3A-B), and the number of neurons positive for Aβ signals (Figure S3-D) were quantified using the processing module of Keyence software. […] Intensity of green and red channel for a particular ROI was calculated and ratios of the individual values were computed (Figure 6B and S7A). For computing the number of mCherry^+GFP^± vesicles or per cell (Figure 6D and S7B), cell outline was drawn manually and number of vesicles per cell (nucleus count – DAPI) was calculated. […] Due to slight variability in transfection efficiency or the number of cells in different experimental set-ups, the readings from each experiment were averaged and normalized to the control cells from that particular set. […]

Substance | Mander's overlap coefficient, R, with EEA1-positive vesicles (primary cortical neurons [1]) | Mander's overlap coefficient, R, with CTSD (primary cortical neurons [1]) | Mander's overlap coefficient, R, with LAMP2 (primary cortical neurons [1]) | Mander's overlap coefficient, R, with LC3-positive vesicles (primary cortical neurons [1]) | Mander's overlap coefficient, R, with RAB7-positive late endosomes (primary cortical neurons [1]) | Intraneuronal accumulation of Aβ peptides by immunoprecipitation of total Aβ (rank order) (primary cortical neurons [2]) | Aβ levels in the lysosomal/late endosomal enriched fraction (16,000 g pellet) (primary cortical neurons [2]) | Aβ in LC3 immunoisolated vesicles (primary cortical neurons [2]; western immunoblot 82E1) | Aβ in LAMP2-immunoisolated lysosomes (primary cortical neurons [2]; western immunoblot 82E1) | Number of LAMP2-positive vesicles (SH-SY5Y cells) | Ratio of perinuclear to peripheral lysosomes (SH-SY5Y cells; LAMP2-positive compartments, perinuclear <2 µm from nucleus, control 0.61 ± 0.12, n = 12, N = 3)
amyloid-β phosphorylated at serine residue 8 [p-Ser8Aβ] | 0.58 ± 0.18 | 0.30 ± 0.06 | 0.33 ± 0.08 | 0.64 ± 0.21 | 0.33 ± 0.05 | p-Ser8Aβ > p-Ser26Aβ > npAβ | only marginal levels | high levels |  |  | 
amyloid-β phosphorylated at serine residue 26 [p-Ser26Aβ] | 0.51 ± 0.14 | 0.65 ± 0.10 | 0.65 ± 0.13 | 0.52 ± 0.09 | 0.62 ± 0.15 | p-Ser8Aβ > p-Ser26Aβ > npAβ | high levels |  | strongly enriched | significantly increased | 
non-phosphorylated amyloid-β [npAβ, reference compound] | 0.43 ± 0.15 | 0.47 ± 0.09 | 0.45 ± 0.12 | 0.47 ± 0.09 | 0.44 ± 0.10 | p-Ser8Aβ > p-Ser26Aβ > npAβ | moderate levels |  | strongly enriched | significantly increased | 0.99 ± 0.16
